The target of this experiment is T1, human nicotinic acetylcholine receptor subtype a4b2 (Homo sapiens, UniProt P17787+P43681).
T1 construct: expressed in transfected cells
T1 sequence (P43681 29-627 limits assumed): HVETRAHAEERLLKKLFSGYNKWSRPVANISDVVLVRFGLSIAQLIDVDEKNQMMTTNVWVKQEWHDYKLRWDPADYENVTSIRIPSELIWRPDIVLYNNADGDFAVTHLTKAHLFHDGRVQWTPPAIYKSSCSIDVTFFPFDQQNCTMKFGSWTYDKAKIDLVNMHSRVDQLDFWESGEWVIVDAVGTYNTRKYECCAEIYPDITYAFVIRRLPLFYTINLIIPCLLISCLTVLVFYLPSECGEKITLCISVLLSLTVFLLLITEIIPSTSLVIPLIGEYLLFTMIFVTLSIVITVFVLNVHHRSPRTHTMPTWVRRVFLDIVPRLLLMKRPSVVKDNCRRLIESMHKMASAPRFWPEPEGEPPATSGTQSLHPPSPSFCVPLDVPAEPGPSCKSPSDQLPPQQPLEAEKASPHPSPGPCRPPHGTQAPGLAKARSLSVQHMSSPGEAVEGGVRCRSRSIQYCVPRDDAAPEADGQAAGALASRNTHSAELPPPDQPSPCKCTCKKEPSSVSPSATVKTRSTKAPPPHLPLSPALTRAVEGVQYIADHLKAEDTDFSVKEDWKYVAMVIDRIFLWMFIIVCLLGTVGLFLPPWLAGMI
T1 sequence (P17787 26-502): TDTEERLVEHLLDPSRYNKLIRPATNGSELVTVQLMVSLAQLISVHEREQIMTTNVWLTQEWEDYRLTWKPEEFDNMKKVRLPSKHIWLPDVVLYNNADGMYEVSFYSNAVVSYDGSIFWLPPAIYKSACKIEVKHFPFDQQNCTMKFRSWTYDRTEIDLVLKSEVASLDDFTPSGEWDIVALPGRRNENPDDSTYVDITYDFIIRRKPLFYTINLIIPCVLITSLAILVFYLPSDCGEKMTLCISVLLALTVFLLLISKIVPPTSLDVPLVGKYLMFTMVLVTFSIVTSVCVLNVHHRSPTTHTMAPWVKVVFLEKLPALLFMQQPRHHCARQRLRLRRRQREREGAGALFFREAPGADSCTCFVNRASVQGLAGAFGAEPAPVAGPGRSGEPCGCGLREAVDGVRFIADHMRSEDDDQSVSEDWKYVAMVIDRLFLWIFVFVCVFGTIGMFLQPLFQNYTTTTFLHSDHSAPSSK
Briefly: Characterization of hα4β2 positive allosteric modulators using FLIPR. In kind it is cell-based. The note with it: shift of nicotine pEC50 in presence of 10 μM test compound; HEK-293 cells stably expressing hα4β2; fluo-4 calcium FLIPR. How it is done: Characterization of hα4β2 Positive Allosteric Modulators Using FLIPR
The modulator activity is determined as a fluorescence-based assay using a Fluorometric Imaging Plate Reader (FLIPR) as described below in more detail.
HEK-hα4β2 cells were seeded on poly-D-lysin-coated 384 well microtiter plates and allowed to proliferate for 24 h. Dye loading was performed by incubating cells with 2 μM fluo-4/AM for 1.5 h at room temperature. Dye not taken up by the cells was removed by aspiration, followed by three washing cycles with NMDG Ringer buffer (containing in mM: 140 NMDG, 5 KCl, 1 MgCl2, 10 CaCl2, 10 HEPES, pH 7.4). The microtiter plates were then placed in the FLIPR and subjected to test solutions.
Full concentration-response curves of nicotine were generated in the absence and presence test compound. Background-subtracted nicotine-mediated calcium responses were determined and normalized to maximal nicotine control responses. Nicotine potencies (expressed as pEC50) were calculated and the difference between the functional potency in the absence and presence of test compound was determined (Δ pEC50).
The modulatory activity of compounds of the invention determined as ΔpEC50 values in the presence of 10 μM of test compound are presented in Table 1 below.
For the compound `Fc1cncc(-n2nnc(-c3cccnc3)n2)c1` [Compound A1, 3-Fluoro-5-[5-(3-pyridyl)tetrazol-2-yl]pyridine], the ΔpEC50 is reported as 1.5.
Regarding `Fc1cncc(-c2nnn(-c3ccc(Cl)nc3)n2)c1` [Compound B19, 2-chloro-5-[5-(5-fluoro-3-pyridyl)tetrazol-2-yl]pyridine], the ΔpEC50 is 1.6.
Turning to `Fc1cncc(-n2nnc(-c3ccc(Cl)nc3)n2)c1` [Compound B20, 2-chloro-5-[2-(5-fluoro-3-pyridyl)tetrazol-5-yl]pyridine], the ΔpEC50 is listed as 0.74.
In the case of `Brc1cncc(-n2nnc(-c3cccnc3)n2)c1` [Compound B2, 3-Bromo-5-[5-(3-pyridyl)tetrazol-2-yl]pyridine], the ΔpEC50 is listed as 0.55.
Under `Clc1cncc(-n2nnc(-c3cccnc3)n2)c1` [Compound B21, 3-chloro-5-[5-(3-pyridyl)tetrazol-2-yl]pyridine] stands 0.8; under `COc1cncc(-n2nnc(-c3cccnc3)n2)c1` [Compound B3, 3-Methoxy-5-[5-(3-pyridyl)tetrazol-2-yl]pyridine], −0.16.
To `Fc1ccc(-n2nnc(-c3cccnc3)n2)cn1` [Compound B9, 2-Fluoro-5-[5-(3-pyridyl)tetrazol-2-yl]pyridine] belongs 1.9; to `Fc1cncc(-c2nnn(-c3cccnc3)n2)c1` [Compound B16, 3-Fluoro-5-[2-(3-pyridyl)tetrazol-5-yl]pyridine], 1.7; to `Fc1ccc(-c2nnn(-c3cccnc3)n2)cn1` [Compound B14, 2-Fluoro-5-[2-(3-pyridyl)tetrazol-5-yl]pyridine], 1.5.
Under `Fc1ccc(-n2nnc(-c3cncc(Cl)c3)n2)cn1` [Compound B18, 3-chloro-5-[2-(6-fluoro-3-pyridyl)tetrazol-5-yl]pyridine] stands 1.5; under `Clc1cncc(-c2nnn(-c3cccnc3)n2)c1` [Compound B15, 3-Chloro-5-[2-(3-pyridyl)tetrazol-5-yl]pyridine], 1.7.
Regarding `Cc1ncccc1-n1nnc(-c2cccnc2)n1` [Compound B7, 2-Methyl-3-[5-(3-pyridyl)tetrazol-2-yl]pyridine], the ΔpEC50 is on record as 0.11.
As for `O=C(O)/C=C/C(=O)O.c1cncc(-c2nnn(-c3cccnc3)n2)c1` [Compound B1, 3-[2-(3-Pyridyl)tetrazol-5-yl]pyridine fumarate], the ΔpEC50 was 1.8.
For the compound `Cc1ccc(-n2nnc(-c3cccnc3)n2)cn1` [Compound B5, 2-Methyl-5-[5-(3-pyridyl)tetrazol-2-yl]pyridine], the ΔpEC50 is 1.7.
On to `Fc1cncc(-c2nnn(-c3cncc(F)c3)n2)c1` [Compound B10, 3-Fluoro-5-[2-(5-fluoro-3-pyridyl)tetrazol-5-yl]pyridine], for which the ΔpEC50 came out at 1.3.
As for `Cc1ccc(-c2nnn(-c3cccnc3)n2)cn1` [Compound B4, 2-Methyl-5-[2-(3-pyridyl)tetrazol-5-yl]pyridine], the ΔpEC50 was 1.0.
On to `Cc1ncccc1-c1nnn(-c2cccnc2)n1` [Compound B8, 2-Methyl-3-[2-(3-pyridyl)tetrazol-5-yl]pyridine], for which the ΔpEC50 is −0.29.
With `Brc1cncc(-c2nnn(-c3cccnc3)n2)c1` [Compound B23, 3-bromo-5-[2-(3-pyridyl)tetrazol-5-yl]pyridine], the ΔpEC50 worked out at 1.5.
As to `Fc1ccc(-n2nnc(-c3cccnc3F)n2)cn1` [Compound B24, 2-fluoro-3-[2-(6-fluoro-3-pyridyl)tetrazol-5-yl]pyridine], the ΔpEC50 was determined as 1.6.
Take `Fc1cncc(-n2nnc(-c3ccc(F)nc3)n2)c1` [Compound B12, 2-Fluoro-5-[2-(5-fluoro-3-pyridyl)tetrazol-5-yl]pyridine]: the ΔpEC50 is given as 1.6.
As for `Clc1ccc(-n2nnc(-c3cccnc3)n2)cn1` [Compound B17, 2-chloro-5-[5-(3-pyridyl)tetrazol-2-yl]pyridine], the ΔpEC50 is listed as 2.0.
Consider `Fc1ccc(-n2nnc(-c3cncc(I)c3)n2)cn1` [Compound B25, 2-fluoro-5-[5-(5-iodo-3-pyridyl)tetrazol-2-yl]pyridine], for which the ΔpEC50 was found to be 0.58.
With `Fc1cncc(-c2nnn(-c3ccc(F)nc3)n2)c1` [Compound B11, 3-Fluoro-5-[2-(6-fluoro-3-pyridyl)tetrazol-5-yl]pyridine], the ΔpEC50 worked out at 1.4.
Turning to `Cc1cncc(-n2nnc(-c3cccnc3)n2)c1` [Compound B6, 3-Methyl-5-[5-(3-pyridyl)tetrazol-2-yl]pyridine], the ΔpEC50 stood at 0.16.
As to `Clc1ccc(-c2nnn(-c3cccnc3)n2)cn1` [Compound B13, 2-Chloro-5-[2-(3-pyridyl)tetrazol-5-yl]pyridine], the ΔpEC50 came out at 1.8.
To `Fc1cncc(-n2nnc(-c3cncc(Cl)c3)n2)c1` [Compound B22, 3-chloro-5-[2-(5-fluoro-3-pyridyl)tetrazol-5-yl]pyridine] belongs 1.1.
